The values that follow are results of earlier work, collected in patent US20070202162A1, “EXTENDED RELEASE PHARMACEUTICAL COMPOSITIONS” (priority 2006, published 2007).

The conditions of the data set: in water and ethanol.

SMILES strings stand for the structures. Where a name gives a salt, the structure may show the parent alone.

With `CC(C)NCC(O)COc1cccc2ccccc12` (stereo not shown) [Propranolol hydrochloride, 1-(Isopropylamino)-3-(1-naphthyloxy)-2-propanol], the solubility entry was “readily soluble in water and ethanol”.
